The experiment concerns the target T1, Cyclic GMP-AMP synthase [147-522] (Homo sapiens, UniProt Q8N884).
T1 construct: 147-522
The experiment is described as follows: Quantification of cGAS Protein Inhibition. The method, then:
The enzyme solution was transferred into the reagent buffer to give a final concentration of 30 nM. […] The reaction plates were then centrifuged at 1000 rpm for 1 minute and incubated at room temperature for 1 h. […] The concentration of cGAMP was measured on a LC-MS/MS system consisting of a THERMO Dionex Ultimate LC system with a high pressure pump, an autosampler, a column heating compartment (Reinach, Switzerland) and a SCIEX Triple Quad 5500 (Framingham, MA, USA) mass spectrometer for detection. The sample plates were centrifuged for 10 minutes at 2000 rpm. Up to three plates were placed in the autosampler for injection. […] An isocratic flow of 1.0 mL/min solvent (60% ACN, 8 mM ammonium acetate, 5 mM ammonium hydroxide, 0.04% acetic acid) was applied and sprayed into the ion source of the mass spectrometers. The MS parameters were optimized based on the properties of the compounds to be detected and run in positive multi-reaction mode (MRM) based on the mass transitions. LC and MS parameters were also optimized to allow for a sample-to-sample measuring time of approximately 75 sec and a run time of 8 hours per 384-well plate. All data were analyzed with Excel; and the dose response curves were generated using the auto fitting function of XLfit.

By IC50 is commonly meant the concentration that gives 50% inhibition. A lower IC50 goes with inhibition by little substance.

T1 sequence (Q8N884 147-522): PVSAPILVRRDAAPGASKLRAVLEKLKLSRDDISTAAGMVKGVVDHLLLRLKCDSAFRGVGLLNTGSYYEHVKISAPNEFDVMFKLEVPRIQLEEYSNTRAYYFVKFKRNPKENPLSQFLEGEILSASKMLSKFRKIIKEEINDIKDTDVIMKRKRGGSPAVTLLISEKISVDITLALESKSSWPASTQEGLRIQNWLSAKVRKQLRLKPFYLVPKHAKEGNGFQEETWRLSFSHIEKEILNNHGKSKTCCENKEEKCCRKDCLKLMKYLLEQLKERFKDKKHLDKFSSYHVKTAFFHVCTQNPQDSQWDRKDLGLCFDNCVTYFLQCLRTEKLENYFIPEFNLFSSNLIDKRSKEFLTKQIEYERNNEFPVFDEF

For the compound `COc1nc2c(-n3ccnc3)c(-c3nnc(C(O)C(F)F)[nH]3)n(C)c2cc1Cl` (stereo unspecified) [US20240051954, Example 21], half-maximal inhibition (IC50) required 121 nM.

(Values after BindingDB's records for patent US20240051954 (Novartis, 2024).)
